Laboratory results published in patent US10858365B2, “Triazolo-pyrimidine compounds and uses thereof” (Dizal (Jiangsu) Pharmaceutical Co., Ltd., priority 2018, dated 2020).
Where two headings read alike, the source gives them in different places.

What was measured:
Type in all cases: cell-based
[1] = target: hA1 (Homo sapiens (Human), UniProt P30542); experiment: FLIPR inhibition assay in hADORA1/CHO (hA1 expressing) cells; conditions: FLIPR calcium, adenosine stimulation
Method: hADORA1/CHO (hA1 expressing) cells (Genscript) were plated at 1×10^4 cells/well into 384-well polystyrene plates one day before starting the experiment. On the day of experiment, the supernatant was discard and replaced with 40 µL of dye (FLIPR calcium 5 Assay Kit) per well and the plates were incubated for 60 mins at 37° C. plus 5% CO2. Then testing compounds were added at different concentrations for FLIPR™ inhibition assay. After a 400 s incubation with compound, […] adenosine was added into the cells, and the signal was captured by FLIPR.

[2] = target: hA2a (Homo sapiens (Human), UniProt P29274); experiment: cAMP inhibition assay in hA2a/CHO cells; conditions: adenosine stimulation, read-out: cAMP & FLIPR IC50 (nM) hA2a
Chain of hA2a (P29274 whole entry): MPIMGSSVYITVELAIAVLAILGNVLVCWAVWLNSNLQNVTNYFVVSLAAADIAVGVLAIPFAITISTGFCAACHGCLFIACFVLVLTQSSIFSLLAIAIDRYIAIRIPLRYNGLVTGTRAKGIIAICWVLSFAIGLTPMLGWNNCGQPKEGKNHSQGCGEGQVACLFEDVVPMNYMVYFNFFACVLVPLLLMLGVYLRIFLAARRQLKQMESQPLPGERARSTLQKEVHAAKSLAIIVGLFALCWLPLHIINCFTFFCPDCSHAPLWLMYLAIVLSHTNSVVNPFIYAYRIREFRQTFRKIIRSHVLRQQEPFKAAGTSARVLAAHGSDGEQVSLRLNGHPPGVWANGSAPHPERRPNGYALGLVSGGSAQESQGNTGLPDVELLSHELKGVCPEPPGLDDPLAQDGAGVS
Method: (§1) hA2a/CHO, hA2b/CHO and mA2a/CHO (Genscript) were plated at 5×10^3 cells/well into 384-well polystyrene plates at the day of experiment. Compounds were pre-incubated with cells for 30 min at 37° C., 5% CO2. Then […] adenosine was added to the cells and incubated for 30 min at 37° C., 5% CO2. Detection reagent (CISBIO) was added and the plates were incubated for 60 min at room temperature. The signal was captured by Envision.
FLIPR™ and cAMP inhibition activities of exemplary compounds in different adenosine receptor over-expressing cell lines are shown in Table 4 below.

[3] = target: mA2a (Mus musculus (Mouse), UniProt Q60613); experiment: cAMP inhibition assay in mA2a/CHO cells; conditions: adenosine stimulation, read-out: cAMP & FLIPR IC50 (nM) mA2a
Chain of mA2a (Q60613 whole entry): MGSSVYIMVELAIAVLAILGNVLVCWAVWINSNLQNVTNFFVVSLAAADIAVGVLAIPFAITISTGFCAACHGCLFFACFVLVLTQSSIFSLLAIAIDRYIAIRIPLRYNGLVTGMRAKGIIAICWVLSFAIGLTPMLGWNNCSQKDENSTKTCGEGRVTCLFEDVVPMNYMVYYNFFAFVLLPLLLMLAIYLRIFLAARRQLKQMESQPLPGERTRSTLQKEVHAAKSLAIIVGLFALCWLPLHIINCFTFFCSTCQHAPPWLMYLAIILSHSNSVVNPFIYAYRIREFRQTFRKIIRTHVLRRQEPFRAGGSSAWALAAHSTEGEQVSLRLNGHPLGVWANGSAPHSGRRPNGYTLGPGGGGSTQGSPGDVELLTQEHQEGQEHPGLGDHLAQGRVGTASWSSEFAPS
Method: as §1

[4] = target: hA2b (Homo sapiens (Human), UniProt P29275); experiment: cAMP inhibition assay in hA2b/CHO cells; conditions: adenosine stimulation, read-out: cAMP & FLIPR IC50 (nM) hA2b
Chain of hA2b (P29275 whole entry): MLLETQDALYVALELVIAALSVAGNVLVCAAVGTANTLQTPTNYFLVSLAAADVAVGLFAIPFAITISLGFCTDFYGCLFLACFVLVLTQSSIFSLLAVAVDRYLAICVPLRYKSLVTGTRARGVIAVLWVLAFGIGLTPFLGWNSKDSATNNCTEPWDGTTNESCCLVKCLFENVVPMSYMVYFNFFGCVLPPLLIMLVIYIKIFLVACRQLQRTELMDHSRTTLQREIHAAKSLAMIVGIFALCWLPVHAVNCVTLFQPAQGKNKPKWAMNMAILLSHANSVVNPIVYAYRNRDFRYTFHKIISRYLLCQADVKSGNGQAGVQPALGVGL
Method: as §1

[5] = hADORA1/CHO cells, read-out: cAMP & FLIPR IC50 (nM) hA1

Chain of hA1 (P30542 whole entry): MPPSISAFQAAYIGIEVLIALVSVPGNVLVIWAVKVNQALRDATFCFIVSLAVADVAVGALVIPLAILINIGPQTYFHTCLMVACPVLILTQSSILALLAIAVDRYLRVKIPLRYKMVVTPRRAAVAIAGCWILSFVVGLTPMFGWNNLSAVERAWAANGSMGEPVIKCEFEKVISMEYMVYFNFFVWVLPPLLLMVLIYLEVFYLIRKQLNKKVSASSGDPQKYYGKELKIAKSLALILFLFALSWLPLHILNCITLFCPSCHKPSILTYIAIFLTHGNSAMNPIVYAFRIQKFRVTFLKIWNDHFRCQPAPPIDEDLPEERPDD

Compound | IC50 [1, 5] [nM] | IC50 [2] [nM] | IC50 [3] [nM] | IC50 [4] [nM] | IC50 ([1]; cAMP & FLIPR IC50 (nM) hA1, hADORA1/CHO cells) [nM]
Cn1cc(-c2nc(N)n3nc(Cc4ncccc4F)nc3c2-c2ccc(=O)n(C)c2)cn1 [Example 59, 5-(5-amino-2-((3-fluoropyridin-2-yl)methyl)-7-(1-methyl-1H-pyrazol-4-yl)-[1,2,4]triazolo[1,5-c]pyrirridin-8-yl)-l-methylpyridin-2(1H)-one] | 37 | 98 | 179 | 1550 | –
CC(C)n1cc(-c2c(-c3ncco3)nc(N)n3nc(Cc4c(F)cccc4F)nc23)ccc1=O [Example 79, 5-(5-amino-2-(2,6-difluorobenzy1)-7-(oxazol-2-yl)-[1,2,4]triazolo[1,5-c]pyrimidin-8-yl)-l-isopropylpyrdin-2(1H)-one] | 28 | 0.7 | 0.9 | 45 | –
Cc1cc(-c2c(-c3ccc(F)cc3)nc(N)n3nc(Cc4ncccc4F)nc23)cn(C)c1=O [Example 29, 5-(5-amino-7-(4-fluorophenyl)-2-((3-fluoropyridin-2-yl)methyl)-[1,2,4]triazolo[1,5-c]pyrimidin-8-yl)-l,3-dimethylpyridin-2(1H)-one] | 4.3 | 3.8 | 5.1 | 91 | –
Nc1nc(-c2ccc(F)cc2)c(-c2ccc3nncn3c2)c2nc(Cc3ncccc3F)nn12 [Example 72, 8-([1,2,4]triazolo[4,3-a]pyridin-6-yl)-7-(4-fluorophenyl)-2-((3-fluoropyridin-2-yl)methyl)-[1,2,4]triazolo[1,5-c]pyrimidin-5-amine] | 9.7 | 37 | 107 | 1050 | –
Cc1cc(-c2c(-c3ccc(F)cc3)nc(N)n3nc(Cc4cccc(N(C)C)n4)nc23)ccn1 [Example 17, 2-((6-(dimethylamino)pyridin-2-yl)methyl)-7-(4-fluorophenyl)-8-(2-methylpyridin-4-yl)-[1,2,4]triazolo[1,5-f]pyrimidin-5-amine] | 22 | 43 | 51 | 4790 | –
Cc1cc(-c2c(-c3ncco3)nc(N)n3nc(Cc4c(F)cccc4F)nc23)cc(N)n1 [Example 81, 8-(2-amino-6-methylpyridin-4-yl)-2-(2,6-difluor obenzyl)-7-(oxazol-2-yl)-[1,2,4]triazolo[1,5-c] pyrimidin-5-amine] | 5320 | 49 | 164 | 9090 | –
Cn1cc(-c2c(-c3ccc(F)c(F)c3)nc(N)n3nc(Cc4ncccc4F)nc23)ccc1=O [Example 39, 5-[5-amino-7-(3,4-difluorophenyl)-2-[(3-fluoropyridin-2-yl)methyl]-[1,2,4]triazolo[1,5-c]pyrimidin-8-yl]-1-methyl-1,2-dihydropyridin-2-one] | 15 | 18 | 39 | 235 | –
Cc1coc(-c2nc(N)n3nc(Cc4c(F)cccc4F)nc3c2-c2ccc(=O)n(C)c2)n1 [Example 27, 5-(5-amino-2-(2,6-difluorobenzyl)-7-(4-methyloxazol-2-yl)-[1,2,4]triazolo[1,5-c]pyrimidin-8-yl)-1-methylpyridin-2(1H)-one] | 112 | 139 | 245 | 10000 | –
Cc1cnc2ccc(-c3c(N4CCOCC4)nc(N)n4nc(Cc5ncccc5F)nc34)cn12 [Example 102, 2-((3-fluoropyridin-2-yl)methyl)-8-(3-methylimidazo[l,2-a]pyridin-6-yl)-7-morpholino-[l,2,4]tri azolo[1,5-c]pyrimidin-5-amine] | 27.2 | 2.6 | 11.2 | 121 | –
Nc1nc(-c2ccc(F)cc2)c(-c2ccc3nc[nH]c3c2)c2nc(Cc3ncccc3F)nn12 [Example 75, 8-(1H-benzo[d]imidazol-6-yl)-7-(4-fluorophenyl)-2-((3-fluoropyridin-2-yl)methyl)-[1,2,4]triazolo [l,5-c]pyrimidin-5-amine] | 31 | 1.7 | 17 | 38 | –
Cc1nccc(-c2c(-c3ccc(F)cc3)nc(N)n3nc(Cc4c(F)cccc4F)nc23)c1C [Example 16, 2-(2,6-difluorobenzyl)-8-(2,3-dimethylpyridin-4-yl)-7-(4-fluorophenyl)-[1,2,4]triazolo[1,5-c] pyrimidin-5-amine] | 205 | 174 | 758 | 125 | –
Cn1cnc2ccc(-c3c(-c4ncco4)nc(N)n4nc(Cc5c(F)cccc5F)nc34)cc21 [Example 91, 2-(2,6-difluorobenzyl)-8-(1-methyl-1H-benzo[d]imidazol-6-yl)-7-(oxazol-2-yl)-[1,2,4]triazolo[1,5-c]pyrimidin-5-amine] | 206 | 2.6 | 5.1 | 102 | –
COc1ccccc1-c1nc(N)n2nc(Cc3ncccc3F)nc2c1-c1ccc(=O)n(C)c1 [Example 98, 5-(5-amino-2-((3-fluoropyridin-2-yl)methyl)-7-(2-methoxyphenyl)-[1,2,4]triazolo[1,5-c]pyrimidin-8-yl)-1-methylpyridin-2(1H)-one] | 333 | 88 | 224 | 1540 | –
Cn1cc(-c2c(-c3ccc(F)cc3F)nc(N)n3nc(Cc4ncccc4F)nc23)ccc1=O [Example 64, 5-(5-amino-7-(2,4-difluorophenyl)-2-((3-fluoropyridin-2-yl)methyl)-[1,2,4]triazolo[1,5-c]pyrimidin-8-yl)-l-methylpyridin-2(lH)-one] | 97 | 68 | 137 | 742 | –
Nc1nc(-c2ccc(F)cc2)c(-c2ccc(=O)n(C3CC3)c2)c2nc(Cc3ncccc3F)nn12 [Example 36, 5-(5-amino-7-(4-fluorophenyl)-2-((3-fluoropyridin-2-yl)methyl)-[1,2,4]triazolo[1,5-c]pyrimidin-8-yl)-1-cyclopropylpyridin-2(1H)-one] | 45 | 20 | 31 | 408 | –
Cc1ccc(-c2nc(N)n3nc(Cc4c(F)cccc4F)nc3c2-c2ccc(=O)n(C)c2)cn1 [Example 24, 5-[5-amino-2-[(2,6-difluorophenyl)methyl]-7-(6-methylpyridin-3-yl)-[1,2,4]triazolo[1,5-c]pyrimidin-8-yl]-1-methyl-1,2-dihydropyridin-2-one] | 12 | 58 | 162 | 631 | –
Nc1nc(-c2ccc(F)cc2)c(-c2ccc3nccn3c2)c2nc(Cc3ncccc3OC(F)F)nn12 [Example 73] | – | 0.1 | 0.4 | 4.8 | 11
Cc1cc(-c2c(-c3ncco3)nc(N)n3nc(Cc4c(F)cccc4F)nc23)cc(C#N)n1 [Example 83, 4-(5-amino-2-(2,6-difluorobenzyl)-7-(oxazol-2-yl)-[1,2,4]triazolo[1,5-c]pyrimidin-8-yl)-6-methylpicolinonitrile] | 923 | 18 | 76 | 10000 | –
Cn1cnc2ccc(-c3c(-c4ncco4)nc(N)n4nc(Cc5ncccc5F)nc34)cc21 [Example 90, 2-((3-fluoropyridin-2-yl)methyl)-8-(1-methyl-1H-benzo[d]imidazol-6-yl)-7-(oxazol-2-yl)-[1,2,4] triazolo[1,5-c]pyrimidin-5-amine] | 72 | 1.8 | 3.5 | 48 | –
Nc1nc(-c2ccc(F)cc2)c(-c2ccc(=O)n(C3CCOC3)c2)c2nc(Cc3c(F)cccc3F)nn12 (stereo not shown) [Example 23, 5-(5-amino-2-(2,6-difluorobenzyl)-7-(4-fluorophenyl)-[1,2,4]triazolo[1,5-c]pyrimidin-8-yl)-1-(tetrahydrofuran-3-yl)pyridin-2(1H)-one] | 26 | 7.7 | 2.9 | 2060 | –
Cn1cc(-c2c(-c3ccc(F)cc3)nc(N)n3nc(Cc4nccs4)nc23)ccc1=O [Example 42, 5-[5-amino-7-(4-fluorophenyl)-2-[(1,3-thiazol-2-yl)methyl]-[1,2,4]triazolo[1,5-c]pyrimidin-8-yl]-1-methyl-1,2-dihydropyridin-2-one] | 6.6 | 7.9 | 13 | 206 | –
Cc1cnc2ccc(-c3c(-c4ccc(F)cc4)nc(N)n4nc(CC5CCOC5)nc34)cn12 (single isomer, unassigned; isomer 1) [Example 105-1, 7-(4-fluorophenyl)-8-(3-methylimidazo[1,2-a]pyridin-6-yl)-2-((tetrahydrofuran-3-yl)methyl)-[l,2, 4]triazolo[1,5-c]pyrimidin-5-amine(isomer 1)] | 14 | 0.1 | 1 | 47.5 | –
